# Literature values in patent US20140205688A1, “STIMULATING AGENT AND STIMULATING COMPOSITION” (priority 2011, published 2014).
# System: humans
# Settings: humans took in / absorbed the substance
smiles,measurement,value
Cn1c(=O)c2c(ncn2C)n(C)c1=O [caffeine],amplitude of CNV,increased
O=C1CN=C(c2ccccc2)c2cc([N+](=O)[O-])ccc2N1 [Nitrazepam],amplitude of CNV,declined
